What was measured:
[1] = molecular target: cGMP-inhibited 3',5'-cyclic phosphodiesterase 3A (Homo sapiens, UniProt Q14432); format: functional
Melanocortin receptor 4 = Melanocortin receptor 4 (Homo sapiens, UniProt P32245)
Histamine H1 receptor = Histamine H1 receptor (Homo sapiens, UniProt P35367)
Cannabinoid receptor 1 = Cannabinoid receptor 1 (Homo sapiens, UniProt P21554); format: functional, cell-based
Histamine H3 receptor [2] = molecular target: T1, Histamine H3 receptor (Homo sapiens, UniProt Q9Y5N1)
[3] = molecular target: T2, Alpha-2A adrenergic receptor (Homo sapiens, UniProt P08913); format: functional, cell-based
T2 sequence (P08913 whole entry): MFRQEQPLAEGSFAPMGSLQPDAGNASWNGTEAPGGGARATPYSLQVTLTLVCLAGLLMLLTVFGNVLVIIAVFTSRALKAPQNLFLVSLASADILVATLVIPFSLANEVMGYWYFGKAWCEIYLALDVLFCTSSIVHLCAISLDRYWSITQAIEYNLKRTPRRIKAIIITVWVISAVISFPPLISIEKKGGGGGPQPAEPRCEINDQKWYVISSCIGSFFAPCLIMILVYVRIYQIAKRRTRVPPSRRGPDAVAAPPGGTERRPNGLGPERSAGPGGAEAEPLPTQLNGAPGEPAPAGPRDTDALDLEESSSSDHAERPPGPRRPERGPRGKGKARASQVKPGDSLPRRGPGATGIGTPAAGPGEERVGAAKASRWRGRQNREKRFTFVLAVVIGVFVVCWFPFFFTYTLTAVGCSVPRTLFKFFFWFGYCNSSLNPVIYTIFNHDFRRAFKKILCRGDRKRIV

[4] = molecular target: T3, Alpha-1A adrenergic receptor (Homo sapiens, UniProt P35348); format: functional, cell-based
T3 sequence (P35348 whole entry): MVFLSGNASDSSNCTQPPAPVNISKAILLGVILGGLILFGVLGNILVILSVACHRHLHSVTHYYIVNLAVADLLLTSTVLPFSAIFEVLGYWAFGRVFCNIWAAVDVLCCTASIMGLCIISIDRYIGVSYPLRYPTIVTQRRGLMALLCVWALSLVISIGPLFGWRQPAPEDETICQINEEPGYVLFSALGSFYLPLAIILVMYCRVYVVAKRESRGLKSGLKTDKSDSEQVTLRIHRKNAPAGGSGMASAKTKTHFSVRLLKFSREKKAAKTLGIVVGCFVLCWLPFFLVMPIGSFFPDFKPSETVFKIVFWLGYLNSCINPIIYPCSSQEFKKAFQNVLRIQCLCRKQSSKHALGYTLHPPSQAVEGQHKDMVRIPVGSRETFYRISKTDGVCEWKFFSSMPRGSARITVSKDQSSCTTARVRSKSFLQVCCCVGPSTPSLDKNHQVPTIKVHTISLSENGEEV

[5] = molecular target: T3, Alpha-1A adrenergic receptor; format: functional, cell-based; remark: listed apart in the source
[6] = molecular target: T4, 5-hydroxytryptamine receptor 1A (Homo sapiens, UniProt P08908); format: functional, cell-based
T4 sequence (P08908 whole entry): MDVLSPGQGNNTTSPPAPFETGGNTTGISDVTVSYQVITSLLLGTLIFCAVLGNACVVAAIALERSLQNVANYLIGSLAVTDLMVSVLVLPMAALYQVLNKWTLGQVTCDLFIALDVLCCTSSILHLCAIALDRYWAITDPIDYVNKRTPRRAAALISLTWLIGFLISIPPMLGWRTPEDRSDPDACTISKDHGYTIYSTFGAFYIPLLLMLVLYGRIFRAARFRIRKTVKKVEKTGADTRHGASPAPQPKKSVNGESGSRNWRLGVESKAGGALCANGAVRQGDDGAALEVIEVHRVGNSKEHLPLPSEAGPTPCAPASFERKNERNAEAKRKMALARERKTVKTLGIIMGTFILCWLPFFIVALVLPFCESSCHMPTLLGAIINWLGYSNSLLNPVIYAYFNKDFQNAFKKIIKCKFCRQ

[7] = molecular target: Beta-2 adrenergic receptor (Homo sapiens, UniProt P07550)
D(1A) dopamine receptor [8] = molecular target: T5, D(1A) dopamine receptor (Homo sapiens, UniProt P21728); format: functional, cell-based
[9] = molecular target: T6, Muscarinic acetylcholine receptor M2 (Homo sapiens, UniProt P08172)
T6 sequence (P08172 whole entry): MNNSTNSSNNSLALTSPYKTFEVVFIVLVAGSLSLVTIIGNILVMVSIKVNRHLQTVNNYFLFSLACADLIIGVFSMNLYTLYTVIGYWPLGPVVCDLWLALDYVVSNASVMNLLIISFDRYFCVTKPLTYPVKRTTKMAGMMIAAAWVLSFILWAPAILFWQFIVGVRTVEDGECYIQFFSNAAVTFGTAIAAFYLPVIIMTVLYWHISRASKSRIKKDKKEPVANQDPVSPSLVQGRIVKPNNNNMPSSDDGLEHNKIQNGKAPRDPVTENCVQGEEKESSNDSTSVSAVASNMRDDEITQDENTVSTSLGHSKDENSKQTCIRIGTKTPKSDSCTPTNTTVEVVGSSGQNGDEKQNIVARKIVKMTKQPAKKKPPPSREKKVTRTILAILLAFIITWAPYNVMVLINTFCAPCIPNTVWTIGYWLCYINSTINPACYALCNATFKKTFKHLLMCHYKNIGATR

D(1A) dopamine receptor [10] = molecular target: T5, D(1A) dopamine receptor
[11] = molecular target: Sodium-dependent dopamine transporter (Homo sapiens, UniProt Q01959)
[12] = molecular target: T4, 5-hydroxytryptamine receptor 1A
[13] = molecular target: Sodium-dependent noradrenaline transporter (Homo sapiens, UniProt P23975)
[14] = molecular target: T7, Prostaglandin G/H synthase 1 (Homo sapiens, UniProt P23219); format: functional
[15] = molecular target: T7, Prostaglandin G/H synthase 1; format: functional; remark: listed apart in the source
Histamine H3 receptor [16] = molecular target: T1, Histamine H3 receptor; remark: listed apart in the source
Also: assay procedure not described here.

Sequence of Melanocortin receptor 4 (P32245 whole entry): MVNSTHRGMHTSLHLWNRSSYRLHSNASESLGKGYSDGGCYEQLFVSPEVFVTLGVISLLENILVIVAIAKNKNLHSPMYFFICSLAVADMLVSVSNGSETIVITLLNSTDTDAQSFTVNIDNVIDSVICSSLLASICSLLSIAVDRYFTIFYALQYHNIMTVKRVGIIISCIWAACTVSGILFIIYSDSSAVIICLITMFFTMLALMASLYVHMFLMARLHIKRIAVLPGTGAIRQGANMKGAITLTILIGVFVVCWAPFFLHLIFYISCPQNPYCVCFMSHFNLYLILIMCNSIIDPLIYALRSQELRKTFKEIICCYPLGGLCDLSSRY
T1 sequence (Q9Y5N1 whole entry): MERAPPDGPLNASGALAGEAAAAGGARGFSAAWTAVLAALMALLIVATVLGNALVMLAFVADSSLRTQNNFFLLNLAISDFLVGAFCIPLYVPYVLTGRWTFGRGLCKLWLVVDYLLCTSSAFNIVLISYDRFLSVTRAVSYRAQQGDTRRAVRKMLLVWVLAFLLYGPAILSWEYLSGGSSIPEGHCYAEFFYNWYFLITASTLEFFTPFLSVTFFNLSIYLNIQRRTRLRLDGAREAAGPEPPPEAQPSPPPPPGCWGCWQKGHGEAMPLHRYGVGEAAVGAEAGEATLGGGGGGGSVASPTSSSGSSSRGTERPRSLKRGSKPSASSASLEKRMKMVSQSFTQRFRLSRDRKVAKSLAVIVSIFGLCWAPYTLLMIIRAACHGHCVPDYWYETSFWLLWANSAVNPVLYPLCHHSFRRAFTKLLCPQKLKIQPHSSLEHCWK
Sequence of Beta-2 adrenergic receptor (P07550 whole entry): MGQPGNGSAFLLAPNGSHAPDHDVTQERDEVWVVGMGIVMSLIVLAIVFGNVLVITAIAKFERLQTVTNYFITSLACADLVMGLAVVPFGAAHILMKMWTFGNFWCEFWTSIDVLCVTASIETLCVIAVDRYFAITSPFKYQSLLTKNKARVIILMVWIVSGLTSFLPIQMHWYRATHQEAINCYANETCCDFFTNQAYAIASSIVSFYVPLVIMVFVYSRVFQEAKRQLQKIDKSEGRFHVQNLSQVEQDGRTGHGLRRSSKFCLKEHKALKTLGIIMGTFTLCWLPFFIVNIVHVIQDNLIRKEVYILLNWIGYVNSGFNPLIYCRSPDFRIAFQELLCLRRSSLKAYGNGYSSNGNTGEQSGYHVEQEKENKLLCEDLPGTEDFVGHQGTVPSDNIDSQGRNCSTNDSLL
Sequence of Cannabinoid receptor 1 (P21554 whole entry): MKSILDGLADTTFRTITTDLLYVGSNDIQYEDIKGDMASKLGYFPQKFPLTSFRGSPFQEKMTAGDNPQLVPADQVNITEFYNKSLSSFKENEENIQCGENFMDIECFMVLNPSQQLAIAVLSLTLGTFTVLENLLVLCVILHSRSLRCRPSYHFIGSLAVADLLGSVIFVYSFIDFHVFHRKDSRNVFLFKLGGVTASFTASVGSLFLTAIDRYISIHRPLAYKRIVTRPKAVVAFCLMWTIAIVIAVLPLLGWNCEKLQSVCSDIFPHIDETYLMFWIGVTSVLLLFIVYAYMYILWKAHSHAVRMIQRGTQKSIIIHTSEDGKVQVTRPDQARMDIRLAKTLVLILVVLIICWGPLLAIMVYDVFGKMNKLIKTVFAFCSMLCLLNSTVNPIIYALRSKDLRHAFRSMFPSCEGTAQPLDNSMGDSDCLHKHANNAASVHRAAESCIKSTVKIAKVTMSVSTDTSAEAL
T5 sequence (P21728 whole entry): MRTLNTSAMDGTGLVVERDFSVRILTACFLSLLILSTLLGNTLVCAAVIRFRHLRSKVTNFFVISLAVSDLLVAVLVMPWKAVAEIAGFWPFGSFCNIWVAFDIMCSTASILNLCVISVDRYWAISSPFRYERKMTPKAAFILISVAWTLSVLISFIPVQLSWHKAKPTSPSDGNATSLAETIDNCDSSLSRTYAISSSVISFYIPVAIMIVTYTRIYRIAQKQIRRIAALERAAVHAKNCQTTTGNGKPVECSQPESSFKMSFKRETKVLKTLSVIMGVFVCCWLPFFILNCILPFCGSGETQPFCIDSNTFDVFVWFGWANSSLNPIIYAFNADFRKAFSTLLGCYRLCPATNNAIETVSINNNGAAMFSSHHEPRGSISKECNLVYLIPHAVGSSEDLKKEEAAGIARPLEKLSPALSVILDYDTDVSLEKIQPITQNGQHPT
Sequence of Histamine H1 receptor (P35367 whole entry): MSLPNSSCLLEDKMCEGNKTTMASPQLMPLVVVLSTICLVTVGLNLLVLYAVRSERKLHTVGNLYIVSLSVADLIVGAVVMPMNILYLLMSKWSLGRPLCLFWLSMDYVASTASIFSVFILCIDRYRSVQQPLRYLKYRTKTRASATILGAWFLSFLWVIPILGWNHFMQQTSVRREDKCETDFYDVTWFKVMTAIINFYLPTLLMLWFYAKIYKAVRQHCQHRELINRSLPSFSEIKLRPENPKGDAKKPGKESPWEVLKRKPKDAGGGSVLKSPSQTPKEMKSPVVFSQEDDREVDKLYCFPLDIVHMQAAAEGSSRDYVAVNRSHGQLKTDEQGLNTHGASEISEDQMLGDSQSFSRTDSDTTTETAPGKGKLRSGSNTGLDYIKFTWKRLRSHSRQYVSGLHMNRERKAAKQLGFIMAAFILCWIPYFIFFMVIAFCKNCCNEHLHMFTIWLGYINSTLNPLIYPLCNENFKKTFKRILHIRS
T7 sequence (P23219 whole entry): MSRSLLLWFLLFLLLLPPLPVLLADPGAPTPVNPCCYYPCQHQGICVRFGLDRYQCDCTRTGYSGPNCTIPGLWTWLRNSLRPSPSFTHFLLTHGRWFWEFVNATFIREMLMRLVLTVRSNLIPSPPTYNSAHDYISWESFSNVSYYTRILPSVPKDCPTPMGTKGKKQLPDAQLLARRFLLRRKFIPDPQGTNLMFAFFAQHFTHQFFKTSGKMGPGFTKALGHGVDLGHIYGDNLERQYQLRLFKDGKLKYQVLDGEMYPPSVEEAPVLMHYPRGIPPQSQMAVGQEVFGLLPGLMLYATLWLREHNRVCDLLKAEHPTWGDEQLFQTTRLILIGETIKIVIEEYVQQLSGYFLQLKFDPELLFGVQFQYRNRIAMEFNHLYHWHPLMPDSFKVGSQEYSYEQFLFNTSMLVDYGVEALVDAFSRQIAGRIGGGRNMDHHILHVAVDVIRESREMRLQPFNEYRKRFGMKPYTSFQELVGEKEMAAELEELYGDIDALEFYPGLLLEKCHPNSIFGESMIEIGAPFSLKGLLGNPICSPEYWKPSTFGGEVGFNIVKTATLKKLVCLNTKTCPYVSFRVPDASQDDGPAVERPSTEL
Sequence of cGMP-inhibited 3',5'-cyclic phosphodiesterase 3A (Q14432 whole entry): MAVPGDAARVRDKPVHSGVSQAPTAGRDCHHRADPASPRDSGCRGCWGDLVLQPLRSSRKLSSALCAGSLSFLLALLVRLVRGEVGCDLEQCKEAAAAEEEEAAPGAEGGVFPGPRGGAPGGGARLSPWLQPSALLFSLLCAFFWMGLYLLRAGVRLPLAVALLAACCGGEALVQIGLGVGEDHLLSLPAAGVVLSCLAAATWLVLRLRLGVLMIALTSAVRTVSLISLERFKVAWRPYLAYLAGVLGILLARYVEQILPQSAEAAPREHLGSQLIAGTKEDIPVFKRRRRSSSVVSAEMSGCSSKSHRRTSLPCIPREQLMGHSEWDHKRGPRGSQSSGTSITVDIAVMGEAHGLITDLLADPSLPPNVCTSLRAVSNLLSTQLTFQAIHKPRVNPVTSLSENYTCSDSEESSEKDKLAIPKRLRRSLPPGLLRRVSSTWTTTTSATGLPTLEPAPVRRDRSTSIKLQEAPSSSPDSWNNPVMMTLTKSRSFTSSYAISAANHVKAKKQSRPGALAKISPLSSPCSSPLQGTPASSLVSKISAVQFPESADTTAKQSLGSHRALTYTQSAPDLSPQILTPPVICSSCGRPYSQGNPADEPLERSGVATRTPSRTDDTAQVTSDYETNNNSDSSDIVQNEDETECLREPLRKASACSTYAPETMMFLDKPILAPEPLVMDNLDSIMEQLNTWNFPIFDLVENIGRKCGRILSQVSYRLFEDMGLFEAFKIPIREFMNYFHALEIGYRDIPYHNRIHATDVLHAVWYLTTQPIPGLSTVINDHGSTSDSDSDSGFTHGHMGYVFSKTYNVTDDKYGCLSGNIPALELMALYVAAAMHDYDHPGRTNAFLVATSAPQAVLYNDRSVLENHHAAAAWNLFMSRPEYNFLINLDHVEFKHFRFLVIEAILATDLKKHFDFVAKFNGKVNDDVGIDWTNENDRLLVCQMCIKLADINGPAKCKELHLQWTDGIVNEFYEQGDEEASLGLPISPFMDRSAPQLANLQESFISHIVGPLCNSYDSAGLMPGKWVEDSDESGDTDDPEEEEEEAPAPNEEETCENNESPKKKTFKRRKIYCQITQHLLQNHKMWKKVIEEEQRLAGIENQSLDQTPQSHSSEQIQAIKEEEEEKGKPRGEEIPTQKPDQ
Sequence of Sodium-dependent dopamine transporter (Q01959 whole entry): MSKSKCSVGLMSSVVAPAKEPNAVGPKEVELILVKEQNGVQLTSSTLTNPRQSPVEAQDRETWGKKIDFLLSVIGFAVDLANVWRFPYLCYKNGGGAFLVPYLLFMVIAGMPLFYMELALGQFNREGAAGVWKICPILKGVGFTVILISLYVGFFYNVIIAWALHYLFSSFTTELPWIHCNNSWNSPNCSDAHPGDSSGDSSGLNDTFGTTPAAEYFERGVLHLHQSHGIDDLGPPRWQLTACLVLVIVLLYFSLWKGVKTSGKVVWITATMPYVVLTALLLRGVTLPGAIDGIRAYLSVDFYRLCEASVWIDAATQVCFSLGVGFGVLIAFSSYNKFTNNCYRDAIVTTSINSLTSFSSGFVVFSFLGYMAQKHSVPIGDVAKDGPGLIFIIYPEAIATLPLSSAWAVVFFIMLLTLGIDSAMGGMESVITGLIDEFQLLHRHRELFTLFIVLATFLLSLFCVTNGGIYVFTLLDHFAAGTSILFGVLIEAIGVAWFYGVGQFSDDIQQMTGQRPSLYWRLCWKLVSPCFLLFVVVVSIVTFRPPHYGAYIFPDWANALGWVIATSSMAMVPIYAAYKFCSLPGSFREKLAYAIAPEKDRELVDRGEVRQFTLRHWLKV

Row | SMILES | AC50 [1] [µM] | AC50 (Melanocortin receptor 4) [µM] | AC50 (Histamine H1 receptor) [µM] | AC50 (Cannabinoid receptor 1) [µM] | AC50 (Histamine H3 receptor [2]) [µM] | AC50 [3] [µM] | AC50 [4] [µM] | AC50 [5] [µM] | AC50 [6] [µM] | AC50 [7] [µM] | AC50 (D(1A) dopamine receptor [8]) [µM] | AC50 [9] [µM] | AC50 (D(1A) dopamine receptor [10]) [µM] | AC50 [11] [µM] | AC50 [12] [µM] | AC50 [13] [µM] | AC50 [14] [µM] | AC50 [15] [µM] | AC50 (Histamine H3 receptor [16]) [µM]
1 | O=C(O)c1cn(C2CC2)c2cc(N3CCNCC3)c(F)cc2c1=O [CIPROFLOXACIN] | > 30 | > 30 | – | – | – | – | – | – | – | – | – | – | – | – | – | – | – | – | –
2 | C#C[C@]1(OC(C)=O)CC[C@H]2[C@@H]3CCC4=C/C(=N/O)CC[C@@H]4[C@H]3CC[C@@]21CC [NORGESTIMATE] | – | – | > 30 | > 30 | > 30 | > 30 | > 30 | > 30 | > 30 | > 30 | > 30 | – | – | – | – | – | – | – | –
3 | CCCC(CCC)C(N)=O [VALPROMIDE] | – | > 30 | > 10 | > 30 | > 10 | > 10 | > 30 | > 30 | – | > 10 | > 10 | – | – | – | – | – | – | – | –
4 | C/N=C(\NC)NCc1ccccc1 [BETHANIDINE] | – | – | > 30 | > 30 | > 30 | > 30 | > 30 | > 30 | > 30 | – | > 30 | – | – | – | – | – | – | – | –
5 | CC(=O)N[C@@H](CS)C(=O)O [ACETYLCYSTEINE] | – | – | > 30 | > 30 | > 30 | > 30 | > 30 | > 30 | > 30 | – | > 30 | – | – | – | – | – | – | – | –
6 | Cc1noc(NS(=O)(=O)c2ccc(N)cc2)c1C [SULFISOXAZOLE] | – | > 10 | – | > 30 | > 10 | > 10 | > 30 | 22 | – | > 10 | > 10 | – | – | – | – | – | – | – | –
7 | O=[N+]([O-])c1ccc(O)c2ncccc12 [NITROXOLINE] | > 30 | – | 4.9 | > 30 | – | > 30 | > 30 | > 30 | > 30 | – | > 30 | > 30 | > 30 | > 30 | > 30 | > 30 | > 30 | > 30 | > 30
8 | COCC1=C(C(=O)O)N2C(=O)[C@@H](NC(=O)/C(=N\OC)c3csc(N)n3)[C@H]2SC1 [CEFPODOXIME] | – | – | > 30 | > 30 | > 30 | > 30 | > 30 | > 30 | > 30 | > 30 | > 30 | – | – | – | – | – | – | – | –
9 | CNCc1ccc(-c2[nH]c3cc(F)cc4c3c2CCNC4=O)cc1 [RUCAPARIB] | – | > 30 | > 10 | – | – | – | – | – | – | > 30 | – | – | – | – | – | – | – | – | –
10 | C[C@]12CCC(=O)C(O)=C1CC[C@@H]1[C@@H]2CC[C@]2(C)C(=O)CC[C@@H]12 [FORMESTANE] | – | – | > 30 | > 30 | > 30 | > 30 | > 30 | > 30 | > 30 | > 30 | > 30 | – | – | – | – | – | – | – | –
11 | Oc1ccc2c(c1)CC[C@H](c1ccccc1)[C@@H]2c1ccc(OCCN2CCCC2)cc1 [LASOFOXIFENE] | – | – | 20 | > 30 | 0.99 | – | – | 12 | > 30 | – | > 30 | – | – | – | – | – | – | – | –
12 | CCCCC(=O)O[C@]1(C(=O)CO)[C@@H](C)C[C@H]2[C@@H]3CCC4=CC(=O)C=C[C@]4(C)[C@@]3(F)[C@@H](O)C[C@@]21C [BETAMETHASONE VALERATE] | – | > 30 | > 10 | > 30 | > 10 | > 10 | > 30 | > 30 | – | > 10 | > 10 | – | – | – | – | – | – | – | –
13 | CNC1=Nc2ccc(Cl)cc2C(c2ccccc2)=[N+]([O-])C1 [CHLORDIAZEPOXIDE] | – | > 30 | – | – | > 10 | > 10 | > 30 | > 30 | – | > 10 | > 30 | – | – | – | – | – | – | – | –
14 | CCC[C@H](NC(=O)[C@@H]1[C@H]2CCC[C@H]2CN1C(=O)[C@@H](NC(=O)[C@@H](NC(=O)c1cnccn1)C1CCCCC1)C(C)(C)C)C(=O)C(=O)NC1CC1 | – | > 30 | > 10 | – | > 10 | – | – | – | – | > 10 | – | – | – | – | – | – | – | – | –
